Measured values: patent US9527856B2, “Oxindole compounds carrying a CO-bound spiro substituent and use thereof for treating vasopressin-related diseases” (AbbVie Deutschland GmbH & Co. KG, priority 2014, dated 2016)

Experiments:
[1] = molecular target: T1, human vasopressin V1b receptor (Homo sapiens, UniProt P47901); assay: biochemical; settings: Ki(h-V1b)* [nM], CHO-K1 cell membranes, displacement of 3H-AVP
T1 sequence (P47901 1-424): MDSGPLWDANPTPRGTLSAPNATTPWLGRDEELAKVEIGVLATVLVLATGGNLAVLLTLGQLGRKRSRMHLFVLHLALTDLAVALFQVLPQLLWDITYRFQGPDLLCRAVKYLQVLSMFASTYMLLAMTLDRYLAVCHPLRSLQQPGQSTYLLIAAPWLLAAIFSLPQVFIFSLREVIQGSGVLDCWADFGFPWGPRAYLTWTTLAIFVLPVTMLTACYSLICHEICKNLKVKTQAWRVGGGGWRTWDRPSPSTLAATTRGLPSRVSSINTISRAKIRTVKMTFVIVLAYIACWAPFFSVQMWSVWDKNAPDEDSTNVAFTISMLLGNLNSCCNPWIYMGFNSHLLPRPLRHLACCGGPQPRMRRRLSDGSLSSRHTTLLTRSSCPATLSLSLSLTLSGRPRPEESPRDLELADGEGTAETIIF

[2] = molecular target: human vasopressin V1a receptor (Homo sapiens, UniProt P37288); assay: Vasopressin V1a receptor binding assay; settings: selectivity for human V1b over human V1a, quotient of binding constants
human vasopressin V1a receptor, sequence (P37288 whole entry): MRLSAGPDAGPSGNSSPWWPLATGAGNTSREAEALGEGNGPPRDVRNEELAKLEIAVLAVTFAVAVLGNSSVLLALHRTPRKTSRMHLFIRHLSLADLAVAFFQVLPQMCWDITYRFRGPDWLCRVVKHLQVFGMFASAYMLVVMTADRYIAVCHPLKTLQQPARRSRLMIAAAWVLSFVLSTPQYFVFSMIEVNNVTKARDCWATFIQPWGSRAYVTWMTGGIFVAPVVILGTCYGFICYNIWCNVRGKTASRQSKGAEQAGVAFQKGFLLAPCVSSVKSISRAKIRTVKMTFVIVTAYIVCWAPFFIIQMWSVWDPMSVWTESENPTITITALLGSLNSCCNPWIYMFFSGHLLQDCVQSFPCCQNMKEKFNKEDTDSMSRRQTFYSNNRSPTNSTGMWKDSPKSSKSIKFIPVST

Structure (SMILES)	Ki [1] [nM]	Ki(h-V1a)/Ki(h-V1b) [2]
CCOc1ccccc1[C@]1(NC(=O)N2CC3(C2)CN(C2CCN(C(C)C)CC2)C3)C(=O)N(S(=O)(=O)c2ccc(OC)cc2)c2ccc(C#N)cc21 [Example 40, N-[(3S)-5-Cyano-3-(2-ethoxyphenyl)-1-(4-methoxyphenyl)sulfonyl-2-oxo-indolin-3-yl]-2-(1-isopropyl-4-piperidyl)-2,6-diazaspiro[3.3]heptane-6-carboxamide]	1 to 10	+++ (>75)
CCOc1ncccc1C1(NC(=O)N2CC3(C2)CN(C2CCNCC2)C3)C(=O)N(S(=O)(=O)c2ccc(OC)cc2OC)c2ccc(C#N)cc21.O=C(O)C(F)(F)F (centres unmarked) [Example 59, N-(5-Cyano-1-(2,4-dimethoxyphenylsulfonyl)-3-(2-ethoxypyridin-3-yl)-2-oxoindolin-3-yl)-6-(piperidin-4-yl)-2,6-diazaspiro[3.3]heptane-2-carboxamide 2,2,2-trifluoroacetate]	10 to 100	+++ (>75)
CCOc1ccccc1[C@]1(NC(=O)N2CC3(C2)CN(C2CCN(C(C)C)CC2)C3)C(=O)N(S(=O)(=O)c2ccc(F)cc2)c2ccc(C#N)cc21.O=C(O)C(F)(F)F [Example 43B, N-[(3S)-5-Cyano-3-(2-ethoxyphenyl)-1-(4-fluorophenyl)sulfonyl-2-oxo-indolin-3-yl]-2-(1-isopropyl-4-piperidyl)-2,6-diazaspiro[3.3]heptane-6-carboxamide; 2,2,2-trifluoroacetic acid]	10 to 100	+++ (>75)
CCOc1ncccc1[C@]1(NC(=O)N2CC3(CN(CCN4CCOCC4)C3)C2)C(=O)N(S(=O)(=O)c2ccc(OC)cn2)c2ccc(C#N)cc21 [Example 4, N-[(3S)-5-Cyano-3-(2-ethoxy-3-pyridyl)-1-[(5-methoxy-2-pyridyl)sulfonyl]-2-oxo-indolin-3-yl]-2-(2-morpholinoethyl)-2,6-diazaspiro[3.3]heptane-6-carboxamide]	1 to 10	+++ (>75)
CCOc1ncccc1C1(NC(=O)N2CCC3(CCN(CC)CC3)CC2)C(=O)N(S(=O)(=O)c2ccc(OC)cc2OC)c2ccc(C#N)cc21 (centres unmarked) [Example 56, N-(5-Cyano-1-(2,4-dimethoxyphenylsulfonyl)-3-(2-ethoxypyridin-3-yl)-2-oxoindolin-3-yl)-9-ethyl-3,9-diazaspiro[5.5]undecane-3-carboxamide 2,2,2-trifluoroacetate]	10 to 100	
CCOc1ncccc1[C@]1(NC(=O)N2CC3(CN(CCN4CCOCC4)C3)C2)C(=O)N(S(=O)(=O)c2ccc(OC)cc2)c2ccc(C#N)cc21 [Example 1, N-[(3S)-5-Cyano-3-(2-ethoxy-3-pyridyl)-1-(4-methoxyphenyl)sulfonyl-2-oxo-indolin-3-yl]-2-(2-morpholinoethyl)-2,6-diazaspiro[3.3]heptane-6-carboxamide]	1 to 10	+++ (>75)
CCOc1ncccc1C1(NC(=O)C2CC3(CNC3)C2)C(=O)N(S(=O)(=O)c2ccc(OC)cc2OC)c2ccc(C#N)cc21 (centres unmarked) [Example 57, N-(5-Cyano-1-(2,4-dimethoxyphenylsulfonyl)-3-(2-ethoxypyridin-3-yl)-2-oxoindolin-3-yl)-2-azaspiro[3.3]heptane-6-carboxamide 2,2,2-trifluoroacetate]	10 to 100	
CCOc1ncccc1[C@]1(NC(=O)N2CC3(CN(CCN4CCOCC4)C3)C2)C(=O)N(S(=O)(=O)c2ccccc2OC)c2ccc(C#N)cc21 [Example 14, N-[(3S)-5-Cyano-3-(2-ethoxy-3-pyridyl)-1-(2-methoxyphenyl)sulfonyl-2-oxo-indolin-3-yl]-2-(2-morpholinoethyl)-2,6-diazaspiro[3.3]heptane-6-carboxamide]	10 to 100	+++ (>75)
CCOc1ncccc1[C@]1(NC(=O)N2CC3(CN(CCN4CCOCC4)C3)C2)C(=O)N(S(=O)(=O)c2ccc(F)cc2OC)c2ccc(C#N)cc21 [Example 17, N-[(3S)-5-Cyano-3-(2-ethoxy-3-pyridyl)-1-(4-fluoro-2-methoxy-phenyl)sulfonyl-2-oxo-indolin-3-yl]-2-(2-morpholinoethyl)-2,6-diazaspiro[3.3]heptane-6-carboxamide]	1 to 10	++ (25-75)
CCOc1ncccc1[C@]1(NC(=O)N2CC3(CN(CCN4CCOCC4)C3)C2)C(=O)N(S(=O)(=O)c2ccccc2OC)c2ccc(C#N)cc21.O=C(O)C(F)(F)F [Example 11, N-[(3S)-5-Cyano-3-(2-ethoxy-3-pyridyl)-1-(2-methoxyphenyl)sulfonyl-2-oxo-indolin-3-yl]-2-(2-morpholinoethyl)-2,6-diazaspiro[3.3]heptane-6-carboxamide; 2,2,2-trifluoroacetic acid]	1 to 10	+++ (>75)
CCOc1ncccc1C1(NC(=O)N2CCC3(CCN(C)CC3)CC2)C(=O)N(S(=O)(=O)c2ccc(OC)cc2OC)c2ccc(C#N)cc21 (centres unmarked) [Example 53, N-(5-Cyano-1-(2,4-dimethoxyphenylsulfonyl)-3-(2-ethoxypyridin-3-yl)-2-oxoindolin-3-yl)-9-methyl-3,9-diazaspiro[5.5]undecane-3-carboxamide 2,2,2-trifluoroacetate]	10 to 100	
CCOc1ncccc1C1(NC(=O)N2CC3(CCN(C)CC3)C2)C(=O)N(S(=O)(=O)c2ccc(OC)cc2OC)c2ccc(C#N)cc21 (centres unmarked) [Example 55, N-(5-Cyano-1-(2,4-dimethoxyphenylsulfonyl)-3-(2-ethoxypyridin-3-yl)-2-oxoindolin-3-yl)-7-methyl-2,7-diazaspiro[3.5]nonane-2-carboxamide 2,2,2-trifluoroacetate]	10 to 100	
CCOc1ncccc1C1(NC(=O)C2CC3(C2)CC(N2CC4(CNC4)C2)C3)C(=O)N(S(=O)(=O)c2ccc(OC)cc2OC)c2ccc(C#N)cc21 (centres unmarked) [Example 48, N-(5-Cyano-1-(2,4-dimethoxyphenylsulfonyl)-3-(2-ethoxypyridin-3-yl)-2-oxoindolin-3-yl)-6-(2,6-diazaspiro[3.3]heptan-2-yl)spiro[3.3]heptane-2-carboxamide 2,2,2-trifluoroacetate]	1 to 10	
CCOc1ncccc1C1(NC(=O)C2CC3(C2)CC(N2CCN(CC)CC2)C3)C(=O)N(S(=O)(=O)c2ccc(OC)cc2OC)c2ccc(C#N)cc21 (centres unmarked) [Example 54, N-(5-Cyano-1-(2,4-dimethoxyphenylsulfonyl)-3-(2-ethoxypyridin-3-yl)-2-oxoindolin-3-yl)-6-(4-ethylpiperazin-1-yl)spiro[3.3]heptane-2-carboxamide 2,2,2-trifluoroacetate]	< 1	
CCOc1ncccc1[C@]1(NC(=O)N2CC3(C2)CN(C2COC2)C3)C(=O)N(S(=O)(=O)c2ccc(F)cc2)c2ccc(C#N)cc21 [Example 31, N-[(3S)-5-Cyano-3-(2-ethoxy-3-pyridyl)-1-(4-fluorophenyl)sulfonyl-2-oxo-indolin-3-yl]-2-(oxetan-3-yl)-2,6-diazaspiro[3.3]heptane-6-carboxamide]	10 to 100	
CCOc1ncccc1C1(NC(=O)N2CCC3(CC2)CN(C2CCNCC2)C3)C(=O)N(S(=O)(=O)c2ccc(OC)cc2OC)c2ccc(C#N)cc21 (centres unmarked) [Example 50, N-(5-Cyano-1-(2,4-dimethoxyphenylsulfonyl)-3-(2-ethoxypyridin-3-yl)-2-oxoindolin-3-yl)-2-(piperidin-4-yl)-2,7-diazaspiro[3.5]nonane-7-carboxamide bis-2,2,2-trifluoroacetate]	10 to 100	
CCOc1ncccc1C1(NC(=O)C2CCC3(CCNCC3)CC2)C(=O)N(S(=O)(=O)c2ccc(OC)cc2OC)c2ccc(C#N)cc21 (centres unmarked) [Example 52, N-(5-Cyano-1-(2,4-dimethoxyphenylsulfonyl)-3-(2-ethoxypyridin-3-yl)-2-oxoindolin-3-yl)-3-azaspiro[5.5]undecane-9-carboxamide 2,2,2-trifluoroacetate]	1 to 10	
CCOc1ncccc1C1(NC(=O)C2CCC3(CC2)CCN(C2CCNCC2)CC3)C(=O)N(S(=O)(=O)c2ccc(OC)cc2OC)c2ccc(C#N)cc21 (centres unmarked) [Example 47, N-(5-Cyano-1-(2,4-dimethoxyphenylsulfonyl)-3-(2-ethoxypyridin-3-yl)-2-oxoindolin-3-yl)-3-(piperidin-4-yl)-3-azaspiro[5.5]undecane-9-carboxamide 2,2,2-trifluoroacetate]	1 to 10	
CCOc1ncccc1[C@]1(NC(=O)N2CC3(CN(CCN4CCOCC4)C3)C2)C(=O)N(S(=O)(=O)c2ccc(C)cc2)c2ccc(C#N)cc21 [Example 16, N-[(3S)-5-Cyano-3-(2-ethoxy-3-pyridyl)-2-oxo-1-(p-tolylsulfonyl)indolin-3-yl]-2-(2-morpholinoethyl)-2,6-diazaspiro[3.3]heptane-6-carboxamide]		++ (25-75)
CCOc1ncccc1[C@]1(NC(=O)C2CC3(CNC3)C2)C(=O)N(S(=O)(=O)c2ccc(OC)cc2)c2ccc(C#N)cc21 [Example 44, N-[(3S)-5-Cyano-3-(2-ethoxy-3-pyridyl)-1-(4-methoxyphenyl)sulfonyl-2-oxo-indolin-3-yl]-6-azaspiro[3.3]heptane-2-carboxamide]	10 to 100	
CCOc1ncccc1C1(NC(=O)N2CCC3(CC2)CNC3)C(=O)N(S(=O)(=O)c2ccc(OC)cc2OC)c2ccc(C#N)cc21 (centres unmarked) [Example 51, N-(5-Cyano-1-(2,4-dimethoxyphenylsulfonyl)-3-(2-ethoxypyridin-3-yl)-2-oxoindolin-3-yl)-2,7-diazaspiro[3.5]nonane-7-carboxamide 2,2,2-trifluoroacetate]	10 to 100	
